According to patent publication US20230151432A1, “KIF18A INHIBITORS FOR TREATMENT OF NEOPLASTIC DISEASES” (AMGEN INC., priority 2020, published 2023):

Tests used:
[1] = tested on: CAL-51 tumors; assay: CAL-51 Tumor Xenograft Efficacy Study (IP); type: in vivo, mouse; conditions: 100 mg/kg IP once daily for 18 consecutive days
Description: Tumor volume and body weight assessment performed as described above. After the final dose on day 36, plasma pharmacokinetic analysis was performed as described above. All data analysis was performed as described above.

[2] = tested on: OVCAR-3 HGSOC cells; assay: Time course Western blot of cell cycle and apoptosis proteins; type: cell-based, human; conditions: 0.5 μM; release from double thymidine block, 4-24 hours
Description: OVCAR-3 HGSOC cells were seeded at a density of 1.4 million cells into 100 mm tissue culture plates in 10 mL of complete growth media. The next day, complete growth media containing 2 mM thymidine was added to the cells and incubated for 16 hours. Cells were washed thrice in 1×PBS before adding complete growth media for 8 hours, followed by and second 2 mM thymidine block for 16 hours. The double thymidine block arrested cells in G1/S phase of the cell cycle. Cells were release from G1/S block by first washing thrice in 1×PBS before adding complete growth media with DMSO or KIF18A inhibitor (Compound C11 at 0.5 μM). Cell lysates were prepared at multiple time points (4, 8, 10, 12, 14, and 24 hours). As controls, asynchronous growing OVCAR-3 cells were treated DMSO or KIF18A inhibitor (Compound C11 at 0.5 μM) and lysates were prepared at 24 hours. Primary antibodies included mouse anti-cleaved-PARP (cl-PARP) (51-900017, BD Pharmingen, 1:500), mouse anti-cyclin B1 (554179, BD Pharmingen, 1:500), rabbit anti-Mcl-1 (5453, Cell Signaling, 1:500), mouse anti-Cyclin E1 (MS-870-P, HE12, NeoMarkers, 1:2000), mouse anti-BubR1 (612503, BD Pharmingen, 1:5000), and rabbit anti-KIF18A (HPA039484, Simga, 1:2000), and mouse anti-β-actin (A5441, Simga, 1:5000).

Compound | effect on tumor growth relative to vehicle control [1] | KIF18A and BubR1 protein levels [2] | cyclin B1, cl-PARP, Mcl-1 and cyclin E1 protein levels [2]
CC(C)(C)NS(=O)(=O)c1cccc(NC(=O)c2ccc(S(=O)(=O)NC(C)(C)C)cc2N2CCC3(CC2)CC3)c1 [Compound C9, 4-(N-(tert-butyl)sulfamoyl)-N-(3-(N-(tert-butyl)sulfamoyl)phenyl)-2-(6-azaspiro[2.5]octan-6-yl)benzamide] | no observable effect |  | 
CC(C)(CO)Nc1ccc(C(=O)Nc2cccc(S(=O)(=O)C3CCCC3)c2)c(N2CCC3(CC2)CC3)n1 [Compound C11, N-(3-(cyclopentylsulfonyl)phenyl)-6-((1-hydroxy-2-methylpropan-2-yl)amino)-2-(6-azaspiro[2.5]octan-6-yl)nicotinamide] |  | increase in KIF18A and BubR1 protein levels | increase in cyclin B1 and cl-PARP protein levels and a decrease in Mcl-1 and cyclin E1 levels
